Experimental findings from patent publication US12630536B2, “Cyanotriazine derivative, preparation method therefor, and application thereof” (Chengdu Fanxi Biopharma Co., LTD., priority 2020, dated 2026) are described below.

In experiment [1] the test system is TR alpha-UAS-bla HEK 293T Cells. The experiment in a line: TR cell-based agonist detection, β-lactamase reporter (LiveBLAzer FRET B/G), TR alpha. As to conditions: for Emax: HEK-293T, 24 h, read-out: Maximum activity ratio; for EC50: Detection of TR_cell-based agonist, HEK 293T-TR alpha, 24 hours, read-out: TR_α_EC50. As for the experimental part: (§1) A method for testing a THR-α/β activation activity of a compound by an in-vitro cell level was as follows.
(§2) Compounds were transferred to a 384-well plate by an ECHO liquid workstation, and each compound was diluted by 3 times with 10 gradient concentrations, which was in triplicate. 1.5×10^4 DMEM-cultured cells (TR beta-UAS-bla HEK 293T Cells) or 1.0×10^4 TR alpha-UAS-bla HEK 293T Cells were placed in the 384-well plate. HEK 293T-TR beta was incubated in an incubator for 16 hours, and HEK 293T-TR alpha was incubated in an incubator for 24 hours. A LiveBLAzer™-FRET B/G (CCF4-AM) substrate was added into the cell plate to detect expression of β-lactamase in cells, and under excitation of 409 nm, a product produced fluorescence with a wavelength of 447 nm. When the β-lactamase was not expressed, under excitation of 409 nm, fluorescence with a wavelength of 520 nm was directly produced through FRET. Combination between the compound and the protein was determined by detecting a ratio of the two kinds of fluorescence (blue/green, 460 nm/530 nm), thus calculating EC50 of the compound. […] Calculation of a factor Z (greater than 0.5) would be used for monitoring a stability of each experiment.

Experiment [2] deals with TR beta-UAS-bla HEK 293T Cells. The experiment in a line: TR cell-based agonist detection, β-lactamase reporter (LiveBLAzer FRET B/G), TR beta. The conditions noted are these: for Emax: read-out: Maximum activity ratio (A460/A530); for EC50: read-out: TR_β_EC50. As for the experimental part:
as §1, §2

Experiment [3] concerns the target T1, THR-β ligand-binding domain (H6-THR-β) (Homo sapiens, UniProt P10828).
T1 construct: made in house; host or cells: Escherichia coli BL21 (DE3), vector pET28a
T1 sequence (P10828 217-461 limits assumed): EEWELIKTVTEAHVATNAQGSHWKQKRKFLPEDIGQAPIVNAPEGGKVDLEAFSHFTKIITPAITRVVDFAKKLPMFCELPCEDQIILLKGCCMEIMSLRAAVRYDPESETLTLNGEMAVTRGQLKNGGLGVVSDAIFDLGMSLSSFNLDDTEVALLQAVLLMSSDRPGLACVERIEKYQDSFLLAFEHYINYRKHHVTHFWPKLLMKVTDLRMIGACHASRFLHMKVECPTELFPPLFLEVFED
T1 sequence (P19793 225-462 partner limits assumed): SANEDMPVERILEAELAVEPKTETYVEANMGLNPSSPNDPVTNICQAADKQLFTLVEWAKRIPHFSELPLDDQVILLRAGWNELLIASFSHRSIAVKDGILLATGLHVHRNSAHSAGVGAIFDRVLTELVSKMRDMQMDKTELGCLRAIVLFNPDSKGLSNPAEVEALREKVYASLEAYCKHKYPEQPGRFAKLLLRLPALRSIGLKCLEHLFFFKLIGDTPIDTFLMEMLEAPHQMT
T1 sequence (Q15596 679-703 partner limits assumed): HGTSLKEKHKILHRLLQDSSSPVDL
The experiment in a line: Co-activated peptide recruitment test of THR-β/RXR/GRIP1 (TR_LBD agonist detection, HTRF). Type of experiment: biochemical. As to conditions: for EC50: Detection of TR_LBD agonist, read-out: TR_beta_EC50; for Measurement of cpd/T3 (maximum ratio) / Maximum activity ratio (A520/A495) / α/β: TR_LBD agonist; for Measurement of cpd/T3 (maximum ratio) / Maximum activity ratio (A520/A495): TR_β; for Measurement of cpd/T3 (maximum ratio): maximum relative to T3; for α/β: ratio TR_α EC50 / TR_β EC50. As for the experimental part: (§3) A ligand binding domain of THR-β (amino acids 148-410) (H6-THR-β) and a ligand binding domain of THR-α (amino acids 202-461) (H6-TRα) were cloned into E. coli expression vector pET28a (Novagen, Milwaukee, Wis.) containing N-terminal six His sequences. The resulting recombinant six-His-tagged protein was produced in E. coli BL21(DE3) cells. The cells were grown in Terrific Broth (self-used self-prepared Bacto tryptone (3.3%, w/v), Difico yeast extract (2.0%, w/v) and NaCl (0.5%, w/v) medium), incubated at 25° C. for 24 hours using a shake flask in 0.2 mM IPTG, harvested or dissolved with 5 volumes of buffer A (0.05 M Tris, 0.3 M NaCl, 1% W/V betaine, 0.01 M imidazole, 0.02 M b-mercaptoethanol, pH 8.0). Lysozyme (1.0 mg/ml, Sigma) and CompleteProtease Inhibitor Cocktail (Roche Diagnostics Gmbh) were added to the slurry and the solution was sonicated for one minute and 5 times at 4° C. The suspension was centrifuged at 127,300 RCF for 2 hours in a Ti45 Beckmann rotor and the supernatant was loaded onto an NI NTAAgarose (Quigen 30210) column. After washing with the buffer A, […] or H6-THR-α was eluted with the buffer A containing 0.25 M imidazole.
(§4) 30 microliters of H6-THR-β (50 nM) or H6-THR-α in 50 mM Hepes, pH 7.0, 1 mM DTT, 0.05% NP40 and 0.2 mg/ml BSA (binding buffer) were mixed with an equal volume of EE-RxRα (50 nM) in the binding buffer. […] Aliquot ([…]) was transferred to a 384-well black microtiter plate. HTRF signal was read on a Victor5 reader (PerkinElmer Life and Analytical Sciences). EC50 was calculated.
(§5) Gene clones expressing a ligand-binding domain (amino acids 148-410) of THR-β (H6-THR-β) and a ligand-binding domain (amino acids 202-461) of THR-α (H6-THR-α) were inserted into an Escherichia coli expression vector pET28a, and the expression vector contained one N-terminal 6-His sequence. The expression vector was introduced into an Escherichia coli BL21 (DE3) strain to produce a recombinant protein with a His tag. […] After finishing culturing, a bacterium in culture was collected, and the collected bacterium was resuspended with a lysis solution (0.05 M Tris, 0.3 M NaCl, 1% W/V betaine, 0.01 M imidazole, 0.02 M β-mercaptoethanol, and pH 8.0) with a volume 5 times that of the bacterium, and lysozyme and protease inhibitors were added at the same time, the treated bacteria was subjected to ultrasonic lysis (5 times per minute) in ice bath (4° C.). A lysed suspension was centrifuged at 127300 RCF for 2 hours, a supernatant was loaded on a NI_NTA agarose (Quigen 30210) column, and after washing with a buffer A, an H6-TRβ or H6-TRα protein was eluted with the buffer A containing 0.25 M imidazole.
(§6) A human retinol X receptor (amino acid 225-462) (RxRα) was subjected to engineering modification, so that an N-terminal of the human retinol X receptor had His6 and EE(EFMPME) tags, and then the human retinol X receptor was cloned into a pACYC vector, and produced a His6 EEtagged protein in Escherichia coli. IPTG with a final concentration of 0.1 mM was added into the culture medium for induction, and cultured in a shaking flask at 18° C. for 18 hours. After finishing culturing, a bacterium in culture was collected, and the collected bacterium was re-suspended with a lysis solution (0.05 M Tris, 0.3 M NaCl, 1% W/V betaine, 0.01 M imidazole, 0.02 β-mercaptoethanol, and pH 8.0) with a volume 5 times that of the bacterium, lysozyme and protease inhibitors were added at the same time, and stirred at 4° C. for 30 minutes. Then, a suspension was subjected to an ultrasonic treatment at 4° C. for 30 seconds for 5 times. The suspension was collected, and centrifuged at 12000 RCF for 20 minutes. A supernatant was collected, and the supernatant was filtered with a membrane with a pore size of 0.45 μm, and then added with 0.5% NP-40.
In general terms: In TR-FRET formats the signal depends on donor and acceptor labels being close together.

The target in experiment [4] is T2, THR-α ligand-binding domain (H6-THR-α) (Homo sapiens, UniProt P10827).
T2 construct: made in house; host or cells: Escherichia coli BL21 (DE3), vector pET28a
T2 sequence (P10827 148-410 isoform P10827-2 limits assumed): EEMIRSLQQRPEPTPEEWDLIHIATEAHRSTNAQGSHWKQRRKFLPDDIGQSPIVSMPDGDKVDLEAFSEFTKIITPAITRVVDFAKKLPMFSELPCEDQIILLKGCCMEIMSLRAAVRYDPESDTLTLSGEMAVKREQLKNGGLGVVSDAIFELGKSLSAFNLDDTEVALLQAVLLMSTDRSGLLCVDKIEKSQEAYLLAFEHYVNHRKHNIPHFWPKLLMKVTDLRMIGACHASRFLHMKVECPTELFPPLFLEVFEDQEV
T2 sequence (P19793 225-462 partner limits assumed): T1 sequence (P19793 225-462 partner limits assumed)
T2 sequence (Q15596 679-703 partner limits assumed): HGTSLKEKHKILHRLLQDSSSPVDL
The experiment is described as follows: Co-activated peptide recruitment test of THR-α/RXR/GRIP1 (TR_LBD agonist detection, HTRF). The experiment is classed as biochemical. As to conditions: for EC50: Detection of TR_LBD agonist, read-out: TR_α_EC50; for Maximum activity ratio (A520/A495) / Measurement of cpd/T3 (maximum ratio): TR_LBD agonist, TR_α; for Measurement of cpd/T3 (maximum ratio): maximum relative to T3. As for the experimental part:
as §3, §4, §5, §6

The mark [5] stands for this setting: Homo sapiens, TR_cell-based agonist, TR_α.
The mark [6] stands for this setting: Homo sapiens, HEK-293T, 16 h, TR_cell-based agonist, TR_β.
The mark [7] stands for this setting: Homo sapiens, Detection of TR_cell-based agonist, HEK 293T-TR beta, 16 hours.

Where two headings read alike, the source gives them in different places.

With `Cn1cnc2cc(Oc3c(Cl)cc(-n4nc(C#N)c(=O)[nH]c4=O)cc3Cl)ccc21` [Compound 2, 2-(3,5-dichloro-4-((1-methyl-1H-benzo[d]imidazol-5-yl)oxy)phenyl)-3,5-dioxo-2,3,4,5-tetrahydro-1,2,4-triazine-6-carbonitrile], the Emax in experiment [1] (setting [5]) amounted to 35%; in experiment [2] (setting [6]), 14.5%. The EC50 in experiment [1] (Homo sapiens) is more than 20000 nM; in experiment [2] (setting [7]), more than 20000 nM; in experiment [3] it was 154 nM; in experiment [4] it was more than 5000 nM. In addition, the “Measurement of cpd/T3 (maximum ratio)” value in experiment [3] is on record as 22.1%.

For `Cn1cnc2cc(Oc3c(Br)cc(-n4nc(C#N)c(=O)[nH]c4=O)cc3Br)ccc21` [Compound 4, 2-(3,5-dibromo-4-((1-methyl-1H-benzo[d]imidazol-5-yl)oxy)phenyl)-3,5-dioxo-2,3,4,5-tetrahydro-1,2,4-triazine-6-carbonitrile], the Emax is 40% in experiment [1] (setting [5]) and 16.6% in experiment [2] (setting [6]). Besides, the EC50 in experiment [1] (Homo sapiens) is more than 20000 nM; in experiment [2] (setting [7]) it was more than 20000 nM; in experiment [3], 51.7 nM; in experiment [4] it was 581 nM. In addition, the “Maximum activity ratio (A520/A495)” value is listed as 1.46 in experiment [3] and 1.59 in experiment [4]. The “Measurement of cpd/T3 (maximum ratio)” value in experiment [3] was 26.6%; in experiment [4], 29.5%. In addition, in experiment [3], the α/β amounted to 11.25.

For `N#Cc1nn(-c2cc(Cl)c(Oc3ccc4ncn(CCN5CCCC5)c4c3)c(Cl)c2)c(=O)[nH]c1=O` [Compound 5], the EC50 was more than 20000 nM in experiment [1]; more than 20000 nM in experiment [2] (Detection of TR_cell-based agonist, HEK 293T-TR beta, 16 hours); 45.5 nM in experiment [3]; 1310 nM in experiment [4]. In addition, in experiment [1] (TR_cell-based agonist, TR_α), the Maximum activity ratio is 0.42. In addition, the “Maximum activity ratio (A460/A530)” value in experiment [2] (TR_cell-based agonist, TR_β) turned out to be 0.134. In addition, the “Maximum activity ratio (A520/A495)” value in experiment [3] was 2.69; in experiment [4], 2.45. Further, the “Measurement of cpd/T3 (maximum ratio)” value in experiment [3] turned out to be 49.1%; in experiment [4], 45.5%. In experiment [3], the α/β was 28.81.

As to `N#Cc1nn(-c2cc(Cl)c(Oc3ccc4ncn(C5CCNC5)c4c3)c(Cl)c2)c(=O)[nH]c1=O` (centres unmarked) [Compound 6], in experiment [3], the EC50 was more than 5000 nM.

On to `N#Cc1nn(-c2cc(Cl)c(Oc3ccc4ncn(C5CCN(Cc6ccccc6)C5)c4c3)c(Cl)c2)c(=O)[nH]c1=O` (centres unmarked) [Compound 7, 2-(4-((1-(1-benzylpyrrolidin-3-yl)-1H-benzo[d]imidazol-6-yl)oxy)-3,5-dichlorophenyl)-3,5-dioxo-2,3,4,5-tetrahydro-1,2,4-triazine-6-carbonitrile], for which the values for the Emax in experiment [1] (setting [5]) and in experiment [2] (setting [6]) were 19% and 11.6%, respectively. The EC50 in experiment [1] (Homo sapiens) was more than 20000 nM; in experiment [2] (setting [7]) it was more than 20000 nM; in experiment [3], 13.4 nM; in experiment [4], more than 5000 nM. For the same compound, the “Measurement of cpd/T3 (maximum ratio)” value in experiment [3] worked out at 22.6%.

As to `N#Cc1nn(-c2cc(Cl)c(Oc3ccc4ncn(C5CCCC5)c4c3)c(Cl)c2)c(=O)[nH]c1=O` [Compound 8, 2-(3,5-dichloro-4-((1-cyclopen-tyl-1H-benzo[d]imidazol-6-yl)oxy)phenyl)-3,5-dioxo-2,3,4,5-tetrahydro-1,2,4-triazine-6-carbonitrile], the Emax turned out to be 72% in experiment [1] (setting [5]) and 33.9% in experiment [2] (setting [6]). Besides, the EC50 in experiment [1] (Homo sapiens) stood at 2200 nM; in experiment [2] (setting [7]) it was 596 nM; in experiment [3], 5.48 nM; in experiment [4], 55 nM. Also, the “Test cpd/T3 (maximum ratio)” value in experiment [1] (TR_cell-based agonist, TR_α, maximum relative to T3) was determined as 32.7%. Moreover, the “Measurement of cpd/T3 (maximum ratio)” value is on record as 6.2% in experiment [2] (TR_cell-based agonist, TR_β, maximum relative to T3); 54.0% in experiment [3]; 43.0% in experiment [4]. The α/β was 3.69 in experiment [2] (TR_cell-based agonist, ratio TR_α EC50 / TR_β EC50) and 10.04 in experiment [3]. The “Maximum activity ratio (A520/A495)” value stood at 2.96 in experiment [3] and 2.32 in experiment [4].

Regarding `N[C@@H](Cc1cc(I)c(Oc2ccc(O)c(I)c2)c(I)c1)C(=O)O` [Compound T3, 3,5,3′-tri-iodine-L-thyronine, reference compound], the EC50 in experiment [1] (Homo sapiens) came out at 0.055 nM; in experiment [2] (Homo sapiens, HEK-293T, 16 h), 0.325 nM.
